# Assay results: patent US20070010463A1, “Remedies for diseases caused by strengthened vascular smooth muscle using 14-membered ring macrolid compounds” (priority 2003, published 2007)
# Read-outs that look alike come from different tables or passages of the source.
# Assays:
# [1] = test system: human coronary vascular smooth muscle cells (CASMCs); assay: Inhibition experiment of the proliferation of CASMCs (WST-1 formazan assay, absorbance 450 nm); format: cell-based
# Protocol: The CASMCs were purchased from Clonetics Co., and cultured at 37° C., 5% CO2 using an attached culture kit (SmGM-2) in a culture medium comprising 5% fetal bovine serum (FBS), 2 ng/ml human basic fibroblast growth factor (b-FGF), 5 μg/ml bovine insulin, and 0.5 ng/ml human epidermal growth factor.
# The CASMCs were cultured in a 96-well plate as in the Example 1 so that about 70˜80% of the area of each well was occupied by the cells, then put into a nutrition-depletion state for 24 hours under a non-serum condition. Roxythromycin (RXM) was then added as a test compound to the culture medium to give various concentration (0.1, 1.0, 10, 100 μg/ml) and the cells were cultured further for 24˜72 hours. The degree of growth of the cells was assayed at each elapsed time by formazan-formation coloring test with WST-1 agent using Takara Premix WST-1 Cell Proliferation Assay System Kit. Actually, Premix WST-1 was added 10 μl each followed by detection of absorbance at 450 nm by means of a plate reader.
# The same experiments were conducted using other anti-bacterial and anti-fungal agents.
# [2] = test system: phosphorylated Rb (retinoblastoma gene products); assay: Western blot analysis of phosphorylated Rb in mitogen-stimulated CASMCs; format: cell-based, human; conditions: RXM 1-10 μg/ml, FIG. 4
# Protocol: It was analyzed whether or not the RXM's inhibition of the stage from G1 phase to S phase of CASMCs was based on the inhibition of phophorylation of Rb (retinoblastoma gene products) that was supposed to be an essential intracellular molecule for transition in the cell cycle. The analysis was carried out using phosphorylated Rb as a marker by means of Western blot with a monoclonal antibody specifically recognizing phosphorylated Rb (Cell Signaling Technology Co.).
# As a level of phosphorylated Rb was so low in normal conditions that it could not be detected by Western blot under normal conditions, the analysis was actually done after 5% FBS, 2 ng/ml human b-FGF, 5 μg/ml bovine insulin, and 0.5 ng/ml human epidermal growth factor had been added to the culture medium in order to stimulate CASMCs with mitogens up to an activated state and to increase an amount of the expressed phosphorylated Rb.
# Western blot was carried out as follows. After the completion of SDS gel electrophoresis, the resulting bands were transferred to PVDF membrane, blocked with dry milk, incubated successively with a first antibody (anit-phosphorylated Rb rabbit antibody) and a labeled second antibody (anti-rabbit IgG mouse antibody), developed using alkaline phosphatase immuno blot kit and determined by means of a densitometer. […]
# [3] = test system: human coronary vascular smooth muscle cells (CASMCs); assay: Cell cycle analysis of CASMCs by flow cytometry (propidium iodide); format: cell-based; conditions: RXM 10 μg/ml, FIG. 3
# Protocol: A further experiment was done using a flow cytometry in order to study when the RXM's direct inhibition activity of the proliferation of CASMCs was effected in a cell cycle.
# The flow cytometry method was carried out in accordance with the following procedures and conditions.
# The cells were fixed with 70% ethanol for 30 min and incubated with RNase (5 μg/ml) for 30 min. They were then incubated with propidium iodide (10 μg/ml) for 30 min, followed by detection with FACScan (Becton Dickinson Co.).
# The transition ratio of the cell cycle was obtained by DNA histogram analysis with ModFit LT software, and shown as % for the total cells.
# [4] = test system: CDKIs-p21; assay: Western blot analysis of CDKIs-p21 expression in mitogen-stimulated CASMCs; format: cell-based, human; conditions: RXM 1-10 μg/ml, under stimulation with the mitogens, FIG. 5
# Protocol: (§1) Western blot was carried out as follows. After the completion of SDS gel electrophoresis, the resulting bands were transferred to PVDF membrane, blocked with dry milk, incubated successively with a first antibody (anit-phosphorylated Rb rabbit antibody) and a labeled second antibody (anti-rabbit IgG mouse antibody), developed using alkaline phosphatase immuno blot kit and determined by means of a densitometer. The operating conditions in these steps were standard ones known to those skilled in the art.
# (§2) In order to examine what kind of modification of intracellular molecules was responsible for the RXM's inhibition of the production of phosphorylated Rb in CASMCs, the analysis was carried out by means of Western blot in the same conditions as in Example 5, focusing attention on […] (CDKIs) that was known to control the intracellular molecules, especially on its major molecules, CDKIs-p27 and CDKIs-p21.
# (§3) As an expresssion level of both CDKIs-p27 and CDKIs-p21 was so low in a normal cell that it could not be detected by Western blot, the analysis was actually done on the cells activated after stimulation with the mitogens in the same way as in Example 5.
# [5] = test system: CDKIs-p27; assay: Western blot analysis of CDKIs-p27 expression in mitogen-stimulated CASMCs; format: cell-based, human; conditions: RXM 1-10 μg/ml, under stimulation with the mitogens, FIG. 5
# Protocol: as §1, §2, §3
# [6] = background statement; cited from earlier work
# [7] = test system: mouse; conditions: cited from earlier work
# [8] = 50 μg/ml, any time between 24 and 72 hours, FIG. 2
compound,measurement,setting,value
C[C@@H]1[C@H](O)[C@@H](C)/C=C/C=C/C=C/C=C/C=C/C=C/C=C/[C@H](O[C@@H]2O[C@H](C)[C@@H](O)[C@H](N)[C@@H]2O)C[C@@H]2O[C@](O)(C[C@@H](O)C[C@@H](O)[C@H](O)CC[C@@H](O)C[C@@H](O)CC(=O)O[C@H]1C)C[C@H](O)[C@H]2C(=O)O [Amphotericin B],inhibition of the proliferation of CASMCs,"[1]; 50 ng/ml, any time between 24 and 72 hours, FIG. 2",none
CC1(C)S[C@@H]2[C@H](NC(=O)[C@H](N)c3ccccc3)C(=O)N2[C@H]1C(=O)O [Ampicilin],inhibition of the proliferation of CASMCs,[1]; [8],none
"CC[C@H]1OC(=O)[C@H](C)[C@@H](O[C@H]2C[C@@](C)(OC)[C@@H](O)[C@H](C)O2)[C@H](C)[C@@H](O[C@@H]2O[C@H](C)C[C@H](N(C)C)[C@H]2O)[C@](C)(O)C[C@@H](C)/C(=N\OCOCCOC)[C@H](C)[C@@H](O)[C@]1(C)O [RXM, roxithromycin]",production of phosphorylated Rb in CASMCs,[2],clearly inhibited
same,inhibition of the proliferation of CASMCs,"[1]; RXM 1 μg/ml, any time during the observation (24-72 hours), vs RXM non-added group, FIG. 1A",inhibited the proliferation of CASMCs to a statistically significant level
same,inhibition of the proliferation of CASMCs,"[1]; RXM 10 μg/ml, any time during the observation (24-72 hours), vs RXM non-added group, FIG. 1A",inhibited the proliferation of CASMCs to a statistically significant level
same,inhibition of the proliferation of CASMCs,"[1]; range of 1-100 μg/ml, drug-dependence manner, vs RXM non-added group, FIG. 1B",inhibited the proliferation of CASMCs to a statistically significant level in a drug-dependence manner
same,inhibition of the stage from G1 phase to S phase in a cell cycle,[3],inhibited a stage from G1 phase to S phase in a cell cycle to a statistically significant level
same,inhibition of the stage from S phase to G2/M phase,[3],did not inhibit
same,expression of CDKIs-p21,[4],no clear difference was observed
same,expression of CDKIs-p27 in CASMCs,[5],clearly increased in a RXM concentration-dependency manner
"CO[C@H]1C[C@@H]2CC[C@@H](C)[C@@](O)(O2)C(=O)C(=O)N2CCCC[C@H]2C(=O)O[C@H]([C@H](C)C[C@@H]2CC[C@@H](O)[C@H](OC)C2)CC(=O)[C@H](C)/C=C(\C)[C@@H](O)[C@@H](OC)C(=O)[C@H](C)C[C@H](C)/C=C/C=C/C=C/1C [Rapamycin, rapamycin]",cytotoxicity,[6],strong cytotoxicity
"CC[C@H]1OC(=O)[C@H](C)[C@@H](O[C@H]2C[C@@](C)(OC)[C@@H](O)[C@H](C)O2)[C@H](C)[C@@H](O[C@@H]2O[C@H](C)C[C@H](N(C)C)[C@H]2O)[C@](C)(O)C[C@@H](C)C(=O)[C@H](C)[C@@H](O)[C@]1(C)O.Cl [erythromaycin hydrochloride, erythromaycin]",Acute toxicity (mouse LD50),[7]; interperitoreal,490 ± 30.4 mg/kg
same,Acute toxicity (mouse LD50),[7]; vein,425.6 ± 15.7 mg/kg
Gentamicin,inhibition of the proliferation of CASMCs,[1]; [8],none
